Experimental data published in patent US10227333B2, “Inhibition of OLIG2 activity” (Curtana Pharmaceuticals, Inc., priority 2015, dated 2019).

What was measured:
GBM4 cells = experiment: GBM4 viability assay (Cell Titer Glo luminescence); assay type: cell-based; conditions: 72 h; human glioblastoma neurosphere cells GBM4, 3 days incubation at 37° C., inhibition of cell growth by Cell Titer Glo luminescence
Experimental: (§1) Cell culture medium was prepared from a NSA proliferation kit (Neurocult) and NeuroCult supplements (Stemcell Tech Cat. #05751) and treated with 20 μL of 10 μg/mL rh EGF, 10 μL of 10 μg/mL rh bFGF and 10 μL of 0.2% Heparin. In this medium, human glioblastoma cells were cultured in ultra-low attachment tissue culture flasks until 1×10^6 cells ml was achieved (GBM4 and GBM8 are distinct neuro sphere cell cultures derived from these human patient tissues). GBM4 and GBM8 cells were dissociated and 10 mL of media containing 4000 human glioblastoma cells per 90 uL were transferred to an ultra-low binding 96-well plate and incubated at 37° C. overnight. On the following day, 10 μL of a 1% DMSO solution of test compound in assay medium was added to wells containing the cell suspension and the mixture incubated at 37° C. for 3 days. At this time, the plate was removed from the incubator and allowed to reach room temperature. After about 30 minutes, 50 μL of Cell Titer Glo solution was added to each well and the plate shaken for 1 minute at low speed. After 10 minutes luminescence was recorded using a Tecan Safire2 reader.
(§2) Reduction in luminescence compared to DMSO only control wells was used to determine the percentage inhibition of cell growth. IC50s were calculated using the % inhibition of luminescence for serial dilutions of compounds fitted to a 4-parameter fit within the Prism (San Diego) curve fitting program.

GBM8 cells = experiment: GBM8 viability assay (Cell Titer Glo luminescence); assay type: cell-based; conditions: 72 h; human glioblastoma neurosphere cells GBM8, 3 days incubation at 37° C., inhibition of cell growth by Cell Titer Glo luminescence; read-out: FBM8 (IC50)
Experimental: as §1, §2

Compound | IC50 (GBM4 cells) [µM] | IC50 (GBM8 cells) [µM]
Cc1cc(N[C@H]2CCCNC2)nc(NC(=N)Nc2ccc(Cl)c(Cl)c2)n1 [Compound 10, (5)-1-(3,4-dichlorophenyl)-3-(4-methyl-6-(piperidin-3-ylamino)pyrimidin-2-yl)guanidine] | < 10 | < 10
Cc1cc(N2CCN(C)CC2)nc(NC(=N)Nc2ccc(Cl)c(Cl)c2)n1 [Compound 27, 1-(3,4-dichlorophenyl)-3-[6-methyl-4-(4-methyl-1-piperazinyl)-2-pyrimidinyl]-guanidine] | 10 to 30 | < 10
CCN1CCCC(Nc2cc(C)nc(NC(=N)Nc3ccc(Cl)c(Cl)c3)n2)C1 (racemic) [Compound 7, (±)-2-[3-(3,4-dichlorophenyl)guanidino]-4-(1-ethyl-3-piperidylamino)-6-methylpyrimidine] | < 10 | < 10
Cc1cc(NCCCN(C)C)nc(N/C(=N/C#N)Nc2ccc(Cl)c(Cl)c2)n1 [Compound 32, 1-(3,4-Dichlorophenyl)-3-{4-[3-(dimethylamino)propylamino]-6-methyl-2-pyrimidinyl}-2-guanidinecarbonitrile] |  | < 10
Cc1cc(NCCCN(C)C)nc(NC(=S)Nc2ccc(Cl)c(Cl)c2)n1 [Compound 31a, 1-{2-[3-(3,4-Dichlorophenyl)thioureido]-6-methyl-4-pyrimidinylamino}-3-(dimethylamino)propane] |  | < 10
CCN1CCC(Oc2cc(C)nc(NC(=N)Nc3ccc(Cl)c(Cl)c3)n2)CC1 [Compound 25, 1-(3,4-dichlorophenyl)-3-[4-(1-ethyl-4-piperidyloxy)-6-methyl-2-pyrimidinyl]-guanidine] | 10 to 30 | 10 to 30
Cc1cc(/N=C(/Nc2ccc(Cl)c(Cl)c2)N(C)C)nc(NCCCN(C)C)c1 [Compound 39, 1-{6-[3-(3,4-Dichlorophenyl)-1,1-dimethylguanidino]-4-methyl-2-pyridylamino}-3-(dimethylamino)propane] |  | > 30
Cc1cc(Nc2cccnc2)nc(NC(=N)Nc2ccc(Cl)c(Cl)c2)n1 [Compound 14, 2-[3-(3,4-dichlorophenyl)guanidino]-6-methyl-4-(3-pyridylamino)pyrimidine] | < 10 | < 10
Cc1cc(N[C@@H]2CCCNC2)nc(NC(=N)Nc2ccc(Cl)c(Cl)c2)n1 [Compound 11, (R)-1-(3,4-dichlorophenyl)-3-(4-methyl-6-(piperidin-3-ylamino)pyrimidin-2-yl)guanidine] | < 10 | < 10
CCN1CCCC(Nc2cc(C)nc(NC(=N)N(C)c3ccc(Cl)c(Cl)c3)n2)C1 (stereo not drawn) [Compound 21, 2-[3-(3,4-dichlorophenyl)-3-methylguanidino]-4-[1-ethyl-3-piperidylamino]-6-methylpyrimidine] | 10 to 30 | > 30
Cc1cc(NC2CCCCC2)nc(NC(=N)Nc2ccc(Cl)c(Cl)c2)n1 [Compound 15, 4-(cyclohexylamino)-2-[3-(3,4-dichlorophenyl)guanidino]-6-methylpyrimidine] | < 10 | < 10
CCN1CCC[C@H](Nc2cc(C)nc(NC(=N)Nc3ccc(Cl)c(Cl)c3)n2)C1 [Compound 24, (S)-1-(3,4-dichlorophenyl)-3-(4-(1-ethylpiperidin-3-ylamino)-6-methylpyrimidin-2-yl)guanidine] | < 10 | < 10
Cc1cc(N2CCOCC2)nc(NC(=N)Nc2ccc(Cl)c(Cl)c2)n1 [Compound 29, 1-(3,4-dichlorophenyl)-3-(4-methyl-6-morpholino-2-pyrimidinyl)guanidine] | < 10 | < 10
CCN1CCC(Nc2cc(C)nc(NC(=N)Nc3ccc(Cl)c(Cl)c3)n2)CC1 [Compound 26, 2-[3-(3,4-dichlorophenyl)guanidino]-4-(1-ethyl-4-piperidylamino)-6-methylpyrimidine] | < 10 | < 10
CCN1CCC[C@@H](Nc2cc(C)nc(NC(=N)Nc3ccc(Cl)c(Cl)c3)n2)C1 [Compound 12, 4-[(3R)-1-ethyl-3-piperidylamino]-2-[3-(3,4-dichlorophenyl)guanidino]-6-methyl-pyrimidine] | < 10 | < 10
Cc1cc(Oc2cccnc2)nc(NC(=N)Nc2ccc(Cl)c(Cl)c2)n1 [Compound 13, 1-(3,4-dichlorophenyl)-3-[6-methyl-4-(3-pyridyloxy)-2-pyrimidinyl]guanidine] | 10 to 30 | > 30
Cc1cc(NC2CCNCC2)nc(NC(=N)Nc2ccc(Cl)c(Cl)c2)n1 [Compound 9, 2-[3-(3,4-dichlorophenyl)guanidino]-6-methyl-4-(4-piperidylamino)pyrimidine] | > 30 | > 30
Cc1cc(OC2CCCNC2)nc(NC(=N)Nc2ccc(Cl)c(Cl)c2)n1 (stereo not drawn) [Compound 17, 1-(3,4-dichlorophenyl)-3-[6-methyl-4-(3-piperidyloxy)-2-pyrimidinyl]guanidine] | 10 to 30 | < 10
Cc1cc(NCCCN(C)C)nc(/N=C(/Nc2ccc(Cl)c(Cl)c2)N(C)C)n1 [Compound 34, 1-{2-[3-(3,4-Dichlorophenyl)-1,1-dimethylguanidino]-6-methyl-4-pyrimidinylamino}-3-(dimethylamino)propane] |  | > 30
C/N=C(\Nc1ccc(Cl)c(Cl)c1)Nc1cc(C)cc(NCCCN(C)C)n1 [Compound 35, 1-{6-[3-(3,4-Dichlorophenyl)-2-methylguanidino]-4-methyl-2-pyridylamino}-3-(dimethylamino)propane] |  | 10 to 30
C/N=C(\Nc1ccc(Cl)c(Cl)c1)Nc1nc(C)cc(NCCCN(C)C)n1 [Compound 33, 1-{2-[3-(3,4-Dichlorophenyl)-2-methylguanidino]-6-methyl-4-pyrimidinylamino}-3-(dimethylamino)propane] |  | > 30
Cc1cc(NC2CCOCC2)nc(NC(=N)Nc2ccc(Cl)c(Cl)c2)n1 [Compound 16, 2-[3-(3,4-dichlorophenyl)guanidino]-6-methyl-4-(tetrahydro-2H-pyran-4-ylamino)-pyrimidine] | 10 to 30 | < 10
Cc1cc(Oc2ccncc2)nc(NC(=N)Nc2ccc(Cl)c(Cl)c2)n1 [Compound 8, 1-(3,4-dichlorophenyl)-3-[6-methyl-4-(4-pyridyloxy)-2-pyrimidinyl]guanidine] | > 30 | > 30
Cc1cc(N(C)C)nc(NC(=N)Nc2ccc(Cl)c(Cl)c2)n1 [Compound 28, (N-methyl{2-[3-(3,4-dichlorophenyl)guanidino]-6-methyl-4-pyrimidinyl}amino)-methane] | < 10 | < 10
